Structures are written as SMILES.

The target of one data set is T1, human TGR5 receptor (Homo sapiens, UniProt Q8TDU6).
T1 construct: host or cells: CHO-K1 (hTGR5-CHO)
T1 sequence (Q8TDU6 1-330): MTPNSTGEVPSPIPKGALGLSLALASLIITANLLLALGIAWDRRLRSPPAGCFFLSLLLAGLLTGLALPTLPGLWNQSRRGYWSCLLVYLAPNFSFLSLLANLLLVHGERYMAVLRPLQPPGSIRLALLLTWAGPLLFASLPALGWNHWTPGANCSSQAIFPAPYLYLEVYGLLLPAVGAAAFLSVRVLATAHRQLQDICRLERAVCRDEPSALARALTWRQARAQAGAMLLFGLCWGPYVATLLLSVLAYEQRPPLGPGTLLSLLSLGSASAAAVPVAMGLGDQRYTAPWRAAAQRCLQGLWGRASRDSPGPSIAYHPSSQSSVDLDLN
The experiment in a line: Human TGR5 cAMP production assay (hTGR5-CHO cells, DiscoveRx cAMP XS+ kit). To be noted: luminescent cAMP assay, read-out: Human TGR5 Lum. cAMP Activity (EC50). It counts as cell-based. The gist of the method:
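EC50 values come from luminescent enzyme-complementation cAMP detection, read after overnight incubation. Beforehand, hTGR5-expressing CHO-K1 cells with IBMX and anti-cAMP antibody were exposed 1 h at room temperature to serially diluted (half-log) compounds.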
For orientation: Cyclic AMP is a second messenger, typically raised through Gs and lowered through Gi signalling.

Data set [1] can be described thus: Pharmacokinetic profile in mice after oral gavage. The data set is classed as in vivo, mouse. The conditions noted are these: mouse; fasted male Hilltop mice, 10 mg/kg oral gavage, plasma; read-out: Cmax. A digest of the protocol:
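Plasma exposure (Cmax, AUC) by non-compartmental analysis of LC-MS/MS data, orbital blood taken at 0, 0.25, 0.5, 1, 2 and 4 h, each value averaging three mice. Dosing: 10 mg/kg oral gavage to overnight-fasted male Hilltop mice (8 weeks), vehicle PEG400/CMC/Tween-80.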

For orientation: EC50 means the concentration at which the effect is half-maximal. One may read the Cmax as the highest concentration seen after dosing. Take `N#Cc1ccc(CCNC(=O)[C@@H]2CCN2c2cc(N3CCC(CCNC(=O)NCCNC(=N)N)CC3)nc(C(F)(F)F)n2)cc1` [Compound 286, (S)-N-(4-cyanophenethyl)-1-(6-(4-(2-(3-(2-guanidinoethyl)-ureido)ethyl)piperidin-1-yl)-2-(trifluoromethyl)pyrimidin-4-yl)azetidine-2-carboxamide]: the EC50 at human TGR5 receptor was under 100 nM. In addition, in data set [1], the Cmax was found to be 5.2 ng/mL.
The corresponding values for `N#Cc1ccc(CCNC(=O)[C@@H]2CCN2c2cc(N3CCC(CCNC(=O)NCCOCCNC(=N)N)CC3)nc(C(F)(F)F)n2)cc1` [Compound 287, (S)-1-(6-(4-(1-amino-1-imino-9-oxo-5-oxa-2,8,10-triazadodecan-12-yl)piperidin-1-yl)-2-(trifluoromethyl)pyrimidin-4-yl)-N-(4-cyanophenethyl)azetidine-2-carboxamid] are under 100 nM and 5 ng/mL.
On the same counts, the results for `CS(=O)(=O)NCCOCCNC(=O)NCCC1CCN(c2cc(N3CC[C@H]3C(=O)NCCc3ccc(C#N)cc3)nc(C(F)(F)F)n2)CC1` [Compound 292, (S)-N-(4-cyanophenethyl)-1-(6-(4-(2-(3-(2-(2-(methylsulfonylamino)-ethoxy)ethyl)ureido)ethyl)piperidin-1-yl)-2-(trifluoromethyl)pyrimidin-4-yl)azetidine-2-carboxamide] are under 100 nM and 1.3 ng/mL.
On the same counts, the results for `O=C(O)CC[C@@H](NC(=O)CCCC1CCN(c2cc(N3CC[C@H]3C(=O)NCCc3ccc(C(F)(F)F)cc3)nc(C(F)(F)F)n2)CC1)C(=O)O` [Compound 294, (R)-2-(4-(1-(2-(trifluoromethyl)-6-((S)-2-((4-(trifluoromethyl)-phenethyl)carbamoyl)azetidin-1-yl)pyrimidin-4-yl)piperidin-4-yl)butanamido)pentanedioic acid] are under 100 nM and 1.7 ng/mL.
With `N#Cc1ccc(CCNC(=O)[C@@H]2CCN2c2cc(N3CCC(CCNc4c(NCCS(=O)(=O)O)c(=O)c4=O)CC3)nc(C(F)(F)F)n2)cc1` [Compound 297, (S)-2-((2-((2-(1-(6-(2-((4-cyanophenethyl)carbamoyl)azetidin-1-yl)-2-(trifluoromethyl)pyrimidin-4-yl)piperidin-4-yl)ethyl)amino)-3,4-dioxocyclobut-1-en-1-yl)amino)ethanesulfonic acid], the EC50 on human TGR5 receptor was under 100 nM. For the same compound, in data set [1], the Cmax stood at 11 ng/mL.
As to `N#Cc1ccc(CCNC(=O)[C@@H]2CCN2c2cc(N3CCC(CCNc4c(NCC(=O)O)c(=O)c4=O)CC3)nc(C(F)(F)F)n2)cc1` [Compound 302, (S)-2-((2-((2-(1-(6-(2-((4-cyanophenethyl)carbamoyl)azetidin-1-yl)-2-(trifluoromethyl)pyrimidin-4-yl)piperidin-4-yl)ethyl)amino)-3,4-dioxocyclobut-1-en-1-yl)amino)acetic acid], on human TGR5 receptor, the EC50 was under 100 nM. Moreover, the Cmax in data set [1] amounted to 3.7 ng/mL.
The corresponding values for `N#Cc1ccc(CCNC(=O)[C@@H]2CCCN(c3cc(N4CCC(CO)CC4)nc(C(F)(F)F)n3)C2)cc1` [Compound 308, (R)—N-(4-cyanophenethyl)-1-(6-(4-(hydroxymethyl)piperidin-1-yl)-2-(trifluoromethyl)pyrimidin-4-yl)piperidine-3-carboxamide] are under 100 nM and 18 ng/mL.
The corresponding values for `O=C(O)CCCC1CCN(c2cc(N3CCC[C@@H](C(=O)NCCc4ccc(C(F)(F)F)cc4)C3)nc(C(F)(F)F)n2)CC1` [Compound 330, (R)-4-(1-(2-(trifluoromethyl)-6-(3-((4-(trifluoromethyl)phenethyl)carbamoyl)piperidin-1-yl)pyrimidin-4-yl)piperidin-4-yl)butanoic acid] are under 100 nM and 20 ng/mL.
On the same counts, the results for `N#Cc1ccc(CCNC(=O)[C@@H]2CCCN(c3cc(N4CCC(CCNC(=O)NCCC(=O)O)CC4)nc(C(F)(F)F)n3)C2)cc1` [Compound 347, (R)-3-(3-(2-(1-(6-(3-((4-cyanophenethyl)carbamoyl)piperidin-1-yl)-2-(trifluoromethyl)pyrimidin-4-yl)piperidin-4-yl)ethyl)ureido)propanoic acid] are under 100 nM and 30 ng/mL.
Regarding `N#C/N=C(\NCCC(=O)O)NCCC1CCN(c2cc(N3CC[C@H]3C(=O)NCCc3ccc(C#N)cc3)nc(C(F)(F)F)n2)CC1` [Compound 351, (S,Z)-3-(2-cyano-3-(2-(1-(6-(2-((4-cyanophenethyl)carbamoyl)azetidin-1-yl)-2-(trifluoromethyl)pyrimidin-4-yl)piperidin-4-yl)ethyl)guanidino)propanoic acid], the EC50 on human TGR5 receptor is under 100 nM. Besides, the highest concentration (Cmax) in data set [1] turned out to be 301 ng/mL.
The corresponding values for `N#Cc1ccc(CCNC(=O)[C@@H]2CCN2c2cc(N3CCC(CCNC(=O)NCCOCCNC(=O)CS(=O)(=O)O)CC3)nc(C(F)(F)F)n2)cc1` [Compound 356, (S)-1-(1-(6-(2-((4-cyanophenethyl)carbamoyl)azetidin-1-yl)-2-(trifluoromethyl)pyrimidin-4-yl)piperidin-4-yl)-4,12-dioxo-8-oxa-3,5,11-triazatridecane-13-sulfonic acid] are under 100 nM and 8.4 ng/mL.
The corresponding values for `N#Cc1ccc(CCNC(=O)[C@@H]2CCN2c2cc(N3CCC(CCNC(=O)NCCOCCNC(=O)NCCS(=O)(=O)O)CC3)nc(C(F)(F)F)n2)cc1` [Compound 358, (S)-15-(1-(6-(2-((4-cyanophenethyl)carbamoyl)azetidin-1-yl)-2-(trifluoromethyl)pyrimidin-4-yl)piperidin-4-yl)-4,12-dioxo-8-oxa-3,5,11,13-tetraazapentadecane-1-sulfonic acid] are under 100 nM and 3.4 ng/mL.
The corresponding values for `N#Cc1ccc(CCNC(=O)[C@@H]2CCN2c2cc(N3CCC(CCNC(=O)NCCOCCNC(=O)NCCC(=O)O)CC3)nc(C(F)(F)F)n2)cc1` [Compound 360, (S)-1-(1-(6-(2-((4-cyanophenethyl)carbamoyl)azetidin-1-yl)-2-(trifluoromethyl)pyrimidin-4-yl)piperidin-4-yl)-4,12-dioxo-8-oxa-3,5,11,13-tetraazahexadecan-16-oic acid] are under 100 nM and 0.5 ng/mL.
As for `N#Cc1ccc(CCNC(=O)[C@@H]2CCN2c2cc(N3CCC(CCCC(=O)NCP(=O)(O)O)CC3)nc(C(F)(F)F)n2)cc1` [Compound 362, (S)-((4-(1-(6-(2-((4-cyanophenethyl)carbamoyl)azetidin-1-yl)-2-(trifluoromethyl)pyrimidin-4-yl)piperidin-4-yl)butanamido)methyl)phosphonic acid], the EC50 at human TGR5 receptor is under 100 nM. Also, the Cmax in data set [1] stood at 36 ng/mL.
As for `N#Cc1ccc(CCNC(=O)[C@@H]2CCN2c2cc(N3CCC(CCNS(=O)(=O)CCNC(=O)[C@@H](N)CS(=O)(=O)O)CC3)nc(C(F)(F)F)n2)cc1` [Compound 363, (R)-2-amino-3-((2-(N-(2-(1-(6-((S)-2-((4-cyanophenethyl)carbamoyl)azetidin-1-yl)-2-(trifluoromethyl)pyrimidin-4-yl)piperidin-4-yl)ethyl)sulfamoyl)ethyl)amino)-3-oxopropane-1-sulfonic acid], the EC50 at human TGR5 receptor is under 100 nM. In addition, the Cmax in data set [1] came out at 0.5 ng/mL.

These data come from patent publication US10654834B2 (Venenum Biodesign, LLC, priority 2016, dated 2020).
